Test results: patent publication EP0937727A1, “Soluble crystalline cefuroxime axetil” (priority 1998, dated 1999)
Where “and” joins values, the source holds several entries; their conditions need not be identical. Equal values may be shown once.

Columns and labels:
[1] = Dissolution (solubility) test of the active ingredient from standardised tablets according to USP 23, p. 316; assay type: physicochemical; settings: test gemäß USP 23, nach 45 Minuten
Excerpt: Im Anschluß beschreibt USP 23, Seite 316 einen Test für die Bestimmung der Bioverfügbarkeit dieses, aus beiden Diastereomeren etwa im Verhältnis von 1:1 bestehenden amorphen Produktes. Hierzu wird die Löslichkeit des Wirkstoffes aus einer standardisierten Tablettenformulierung in […] bestimmt. Zuläßlich sind solche Produkte, bei denen in 15 Minuten mindestens 60% des angegebenen Gehaltes an Wirkstoff und innerhalb von 45 Minuten mindestens 75% des angegebenen Wirkstoffes aufgelöst sind.
Das Produkt gemäß EP-A1 0 757 991 läßt sich nach der dortigen Vorschrift erzeugen. Die Löslichkeit des Wirkstoffes (aus der tablettierten Form) wie im folgenden beschrieben und bestimmt nach dem Standardverfahren gem. USP 23, S. 316, erreicht jedoch nach 45 Minuten nur etwas mehr als 40 %.
Dann wurden mit dem so gewonnenen Wirkstoff einerseits, dem erfindungsgemäßen Wirkstoff andererseits Tabletten hergestellt, und zwar nach folgendem Verfahren: 305 mg kristallines Cefuroxim axetil wurden mit 50 mg Ac disol, 50 mg Avicel pH 105, 7,5 mg Aerosil 200, 2,5 mg Magnesiumstearat und 7,5 Explotab trocken vermischt. Das Gemisch wurde trocken verpreßt und granuliert. Das so erhaltene Granulat wurde mit 7,5 mg Explotab und 7,5 mg Natriumlaurylsulfat vermischt und das erhaltene Gemisch wurde dann zu Tabletten gepreßt.
Mit den so erhaltenen Tabletten wurde jeweils der Löslichkeitstest gemäß USP 23 durchgeführt. […]

[2] = known crystalline form of the prior art; compared with the prescribed minimum (60% in 15 Minuten, 75% in 45 Minuten); cited from earlier work

## CO/N=C(\C(=O)N[C@@H]1C(=O)N2C(C(=O)OC(C)OC(C)=O)=C(COC(N)=O)CS[C@H]12)c1ccco1 (stereo partly drawn) [Produkt gemäß EP-A1 0 757 991, (R,S)-Cefuroxim axetil]
[1]
  Löslichkeit (Grad der Auflösung des Wirkstoffes): > 40%

## CO/N=C(\C(=O)N[C@@H]1C(=O)N2C(C(=O)OC(C)OC(C)=O)=C(COC(N)=O)CS[C@H]12)c1ccco1 (single isomer, unassigned) [Beispiel 2]
[1]; listed as kristalline Form von (R,S)-Cefuroxim axetil gemäß USP 23
  Löslichkeit (Grad der Auflösung des Wirkstoffes): > 50% and ~75%

## CO/N=C(\C(=O)N[C@@H]1C(=O)N2C(C(=O)OC(C)OC(C)=O)=C(COC(N)=O)CS[C@H]12)c1ccco1 (stereo partly drawn) [kristalline (R,S)-Cefuroxim axetil, (R,S)-Cefuroxim axetil]
[2]
  Löslichkeit im Test gemäß USP 23: bei weitem nicht die vorgeschriebene Mindestlöslichkeit
